Data on 23 compounds can be found in patent US12410160B2 (Gilead Sciences, Inc., priority 2021, dated 2025).

Assay [1] concerns HepG2 cells. Description: F1P Cell-Based Assay (EC50), 13C6-fructose-1-phosphate in HepG2 cells (cell culture medium or 50% human plasma). As to conditions: Homo sapiens. Here is the method: F1P Cell-Based Assay (EC50)
Compounds were serially diluted (1:3) in DMSO. The LabCyte ECHO Acoustic dispenser system was used to pre-spot the assay plates (Greiner, Catalog #781091) with 400 nL (200-fold final dilution in 80 μL assay volume) of compound. 25,000 cells/well HepG2 cells (ATCC Catalog #HB-8065) were plated in a 40 μL volume/well in DMEM medium with 4.5 g/L glucose, 1× Penicillin-Streptomycin-Glutamine, and 10% FBS, using a BioTEK dispenser in a biological hood and incubated overnight at 37° C., 5% CO2, 90% humidity. 40 μL/well serum free assay medium (for F1P assay in cell culture medium), or 40 μL/well 100% human plasma (for F1P assay in 50% human plasma) were then added to the plates on the following day, and incubated for 1 hour at 37° C., 5% CO2, 90% humidity. ^13C6-labelled fructose (Sigma, Catalog #587621) in sterile PBS was added to the plates at a final concentration of 5 mM. The plates were incubated for 2 hours at 37° C., 5% CO2, 90% humidity. The assay was quenched by washing the cells with sterile PBS and adding 60 μL/well of 80% (v/v) methanol, 2 mM ammonium acetate and 2.5 μM Crotonyl-CoA, using a BioTEK washer-dispenser system. The plates were then sealed and stored in the −80° C. freezer until ready for RapidFire readout. ^13C6-fructose-1-phosphate in individual wells was quantified using the Agilent RapidFire High-Throughput MS system in negative mode using a […]. Mobile Phase 1 consisted of 20 mM ammonium acetate with 0.05% acetic acid in 100% methanol. Mobile phase 2 consisted of 5 mM octylamine in water (pH adjusted to 5 using acetic acid). F1P signals in individual wells were normalized by crotonyl CoA internal control.

In assay [2] the target is human KHK-C (Homo sapiens (Human), UniProt P50053). The experiment in a line: KHK Biochemical Assay (IC50), ADP-Glo, KHK-C. Conditions: ADP-Glo; average of at least two separate assays. A digest of the protocol:
(§1)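 ADP-Glo luminescence measured ADP made over a 4 h room-temperature reaction of ATP plus fructose, started after 30 min compound–enzyme pre-incubation. Buffer: 50 mM Hepes pH 7.4, 140 mM KCl, 5 mM MgCl2, 0.01% Triton-X. Enzyme was His-tagged, BL21 (DE3)-expressed, Ni-NTA-purified; compounds in 1:3 DMSO dilution series.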

Assay [3] concerns the target human KHK-A (Homo sapiens (Human), UniProt P50053). The experiment in a line: KHK Biochemical Assay (IC50), ADP-Glo, KHK-A. Conditions: ADP-Glo; average of at least two separate assays. A digest of the protocol: as §1
Setting [4] is: HepG2, HepG2 cells, 50% human plasma, read-out: F1P 50% HP EC50.
Where [5] appears, read: HepG2, read-out: F1P 10% FBS EC50, HepG2 cells, cell culture medium (10% FBS).

Read-outs that look alike come from different tables or passages of the source.

Sequence of human KHK-C (P50053 whole entry): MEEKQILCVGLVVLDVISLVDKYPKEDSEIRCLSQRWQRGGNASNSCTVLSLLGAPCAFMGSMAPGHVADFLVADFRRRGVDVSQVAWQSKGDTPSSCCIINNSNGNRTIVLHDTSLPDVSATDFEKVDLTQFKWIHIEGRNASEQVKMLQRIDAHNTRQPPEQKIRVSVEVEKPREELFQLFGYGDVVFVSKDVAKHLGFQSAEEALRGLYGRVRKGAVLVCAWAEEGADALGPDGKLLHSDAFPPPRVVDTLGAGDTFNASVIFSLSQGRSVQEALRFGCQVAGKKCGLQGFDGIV
Sequence of human KHK-A (P50053 other isoform, or with tags, fused parts or gaps): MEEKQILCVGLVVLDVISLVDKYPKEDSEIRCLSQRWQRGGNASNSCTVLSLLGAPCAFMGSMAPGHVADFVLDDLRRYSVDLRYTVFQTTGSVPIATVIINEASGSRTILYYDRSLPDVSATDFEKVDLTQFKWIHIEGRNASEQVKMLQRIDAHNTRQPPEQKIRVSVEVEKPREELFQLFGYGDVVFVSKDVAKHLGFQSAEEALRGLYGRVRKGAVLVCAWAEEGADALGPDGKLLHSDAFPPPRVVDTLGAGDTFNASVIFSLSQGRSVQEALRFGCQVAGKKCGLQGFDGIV

`C[C@H]1[C@H](O)CN1c1nc(-c2ccc(OC(F)F)c(S(C)(=N)=O)c2)c2c(n1)C(F)(F)CC2` (stereo partly shown) [Example 532]: the EC50 in assay [1] (setting [4]) amounted to 55.1 nM; in assay [1] (setting [5]), 5.1 nM.

Regarding `C[C@H]1[C@H](O)CN1c1nc(-c2ccc3c(c2)OC(C(F)F)CNC3=O)c2c(n1)C(F)(F)CC2` (stereo partly drawn) [Example 597, 8-(7,7-difluoro-2-((2S,3R)-3-hydroxy-2-methylazetidin-1-yl)-6,7-dihydro-5H-cyclopenta[d]pyrimidin-4-yl)-2-(difluoromethyl)-3,4-dihydrobenzo[f][1,4]oxazepin-5(2H)-one], the half-maximal effective concentration (EC50) in assay [1] (setting [4]) stood at 34.4 nM; in assay [1] (setting [5]) it was 16 nM.

Consider `C[C@H]1[C@H](O)CN1c1nc(-c2ccc3c(c2)C(NS(C)(=O)=O)CO3)c2c(n1)C(F)(F)CC2` (stereo partly shown) [Example 613], for which the concentration giving a half-maximal response (EC50) in assay [1] (setting [4]) was determined as 26 nM; in assay [1] (setting [5]) it was 14.5 nM.

As to `C[C@H]1[C@H](O)CN1c1nc(-c2cccc(-n3cnnc3)c2)c2c(n1)C(F)(F)CC2` [Example 619, (2S,3R)-1-(4-(3-(4H-1,2,4-triazol-4-yl)phenyl)-7,7-difluoro-6,7-dihydro-5H-cyclopenta[d]pyrimidin-2-yl)-2-methylazetidin-3-ol], the EC50 was over 500 nM in assay [1] (setting [4]) and 77.3 nM in assay [1] (setting [5]).

For `C[C@H]1CCN1c1nc2c(c(-c3cccc(S(=N)(=O)CC(=O)N4CCC4)c3)n1)CCC2` (stereo partly drawn) [Example 877, (2-(azetidin-1-yl)-2-oxoethyl)(imino)(3-(2-((S)-2-methylazetidin-1-yl)-6,7-dihydro-5H-cyclopenta[d]pyrimidin-4-yl)phenyl)-λ^6-sulfanone], the 50% inhibitory concentration (IC50) came to 208 nM in assay [2] and 186 nM in assay [3].

In the case of `C[C@H]1CCN1c1nc2c(c(-c3cccc(S(=N)(=O)c4ccccc4)c3)n1)CCC2` (stereo partly drawn) [Example 878, imino(3-(2-((S)-2-methylazetidin-1-yl)-6,7-dihydro-5H-cyclopenta[d]pyrimidin-4-yl)phenyl)(phenyl)-λ^6-sulfanone], the concentration for half-maximal inhibition (IC50) in assay [2] turned out to be 86.9 nM; in assay [3], 37.8 nM.

Turning to `C[C@H]1CCN1c1nc2c(c(-c3cccc(S(=N)(=O)c4ccc(C#N)cc4)c3)n1)CCC2` (stereo partly drawn) [Example 879, 4-(3-(2-((S)-2-methylazetidin-1-yl)-6,7-dihydro-5H-cyclopenta[d]pyrimidin-4-yl)phenylsulfonimidoyl)benzonitrile], the half-inhibitory concentration (IC50) in assay [2] was 46.7 nM; in assay [3] it was 41.6 nM.

As for `COc1ccc(-c2nc(N3CC[C@@H]3C)nc3c2CCC3)cc1S(=N)(=O)CCN(C)C(C)=O` (stereo partly drawn) [Example 881, N-(2-(2-methoxy-5-(2-((S)-2-methylazetidin-1-yl)-6,7-dihydro-5H-cyclopenta[d]pyrimidin-4-yl)phenylsulfonimidoyl)ethyl)-N-methylacetamide], the results for the IC50 in assay [2] and in assay [3] were 70.5 nM and 46 nM, respectively.

On to `C[C@H]1CCN1c1nc2c(c(-c3ccc4c(c3)C(NS(C)(=O)=O)CCO4)n1)CCC2` (stereo partly drawn) [Example 883, N-(6-(2-((S)-2-methylazetidin-1-yl)-6,7-dihydro-5H-cyclopenta[d]pyrimidin-4-yl)chroman-4-yl)methanesulfonamide], for which the IC50 in assay [2] was 14.6 nM; in assay [3], 21 nM.

For the compound `CCC1Oc2cc(-c3nc(N4CC[C@@H]4C)nc4c3CCC4)ccc2C1NS(C)(=O)=O` (stereo partly drawn) [Example 884, N-(2-ethyl-6-(2-((S)-2-methylazetidin-1-yl)-6,7-dihydro-5H-cyclopenta[d]pyrimidin-4-yl)-2,3-dihydrobenzofuran-3-yl)methanesulfonamide], the figures for the half-maximal inhibitory concentration (IC50) in assay [2] and in assay [3] were 46.1 nM and 96.2 nM, respectively.

As for `C[C@H]1CCN1c1nc2c(c(-c3ccc4c(c3)CC(F)C4NS(C)(=O)=O)n1)CCC2` (stereo partly drawn) [Example 885, N-(2-fluoro-5-(2-((S)-2-methylazetidin-1-yl)-6,7-dihydro-5H-cyclopenta[d]pyrimidin-4-yl)-2,3-dihydro-1H-inden-1-yl)methanesulfonamide], the IC50 in assay [2] was 26.1 nM; in assay [3] it was 150 nM.

In the case of `C[C@@H]1Oc2cc(-c3nc(N4CC[C@@H]4C)nc4c3CCC4)ccc2[C@H]1NS(C)(=O)=O` [Example 886, N-((2s,3r)-2-methyl-6-(2-((S)-2-methylazetidin-1-yl)-6,7-dihydro-5H-cyclopenta[d]pyrimidin-4-yl)-2,3-dihydrobenzofuran-3-yl)methanesulfonamide], the 50% inhibitory concentration (IC50) is 13.2 nM in assay [2] and 27.1 nM in assay [3].

In the case of `C[C@@H]1Oc2cc(-c3nc(N4CC[C@@H]4C)nc4c3CCC4)ccc2[C@@H]1NS(C)(=O)=O` [Example 887, N-((2s,3s)-2-methyl-6-(2-((S)-2-methylazetidin-1-yl)-6,7-dihydro-5H-cyclopenta[d]pyrimidin-4-yl)-2,3-dihydrobenzofuran-3-yl)methanesulfonamide], the IC50 in assay [2] turned out to be 10.5 nM; in assay [3], 44.4 nM.

As for `C[C@H]1CCN1c1nc2c(c(-c3ccc4c(c3)C(O)CC4NS(C)(=O)=O)n1)CCC2` (stereo partly drawn) [Example 888, N-(3-hydroxy-5-(2-((S)-2-methylazetidin-1-yl)-6,7-dihydro-5H-cyclopenta[d]pyrimidin-4-yl)-2,3-dihydro-1H-inden-1-yl)methanesulfonamide], the IC50 in assay [2] is 4.1 nM; in assay [3], 51.3 nM.

For the compound `Cc1cc(-c2nc(N3CC[C@@H]3C)nc3c2CCC3)cc2c1C(NS(C)(=O)=O)CO2` (stereo partly drawn) [Example 889, N-(4-methyl-6-(2-((S)-2-methylazetidin-1-yl)-6,7-dihydro-5H-cyclopenta[d]pyrimidin-4-yl)-2,3-dihydrobenzofuran-3-yl)methanesulfonamide], the half-inhibitory concentration (IC50) in assay [2] stood at 17.1 nM; in assay [3] it was 98.8 nM.

Regarding `C[C@H]1CCN1c1nc2c(c(-c3ccc4c(c3)CCCC4NS(C)(=O)=O)n1)CCC2` (stereo partly drawn) [Example 890, N-(6-(2-((S)-2-methylazetidin-1-yl)-6,7-dihydro-5H-cyclopenta[d]pyrimidin-4-yl)-1,2,3,4-tetrahydronaphthalen-1-yl)methanesulfonamide], the figures for the IC50 in assay [2] and in assay [3] were 60.8 nM and 141 nM, respectively.

With `CC1Cc2cc(-c3nc(N4CC[C@@H]4C)nc4c3CCC4)ccc2C1NS(C)(=O)=O` (stereo partly drawn) [Example 891, N-(2-methyl-5-(2-((S)-2-methylazetidin-1-yl)-6,7-dihydro-5H-cyclopenta[d]pyrimidin-4-yl)-2,3-dihydro-1H-inden-1-yl)methanesulfonamide], the figures for the half-inhibitory concentration (IC50) in assay [2] and in assay [3] were 59.5 nM and 167 nM, respectively.

Consider `COC1Cc2cc(-c3nc(N4CC[C@@H]4C)nc4c3CCC4)ccc2C1NS(C)(=O)=O` (stereo partly drawn) [Example 892, N-(2-methoxy-5-(2-((S)-2-methylazetidin-1-yl)-6,7-dihydro-5H-cyclopenta[d]pyrimidin-4-yl)-2,3-dihydro-1H-inden-1-yl)methanesulfonamide], for which the IC50 in assay [2] stood at 99.5 nM; in assay [3], 330 nM.

On to `C[C@H]1CCN1c1nc2c(c(-c3ccc4c(c3)CC(C(F)(F)F)C4NS(C)(=O)=O)n1)CCC2` (stereo partly drawn) [Example 893, N-(5-(2-((S)-2-methylazetidin-1-yl)-6,7-dihydro-5H-cyclopenta[d]pyrimidin-4-yl)-2-(trifluoromethyl)-2,3-dihydro-1H-inden-1-yl)methanesulfonamide], for which the IC50 in assay [2] was found to be 733 nM; in assay [3], 1780 nM.

On to `CC1CC(NS(C)(=O)=O)c2ccc(-c3nc(N4CC[C@@H]4C)nc4c3CCC4)cc21` (stereo partly drawn) [Example 894, N-(3-methyl-5-(2-((S)-2-methylazetidin-1-yl)-6,7-dihydro-5H-cyclopenta[d]pyrimidin-4-yl)-2,3-dihydro-1H-inden-1-yl)methanesulfonamide], for which the IC50 in assay [2] amounted to 20.5 nM; in assay [3], 106 nM.

For the compound `Cc1cc(-c2nc(N3CC[C@@H]3C)nc3c2CCC3)cc2c1C(NS(C)(=O)=O)CC2` (stereo partly drawn) [Example 895, N-(7-methyl-5-(2-((S)-2-methylazetidin-1-yl)-6,7-dihydro-5H-cyclopenta[d]pyrimidin-4-yl)-2,3-dihydro-1H-inden-1-yl)methanesulfonamide], the concentration for half-maximal inhibition (IC50) in assay [2] is 38.1 nM; in assay [3] it was 175 nM.

Turning to `NC1(c2ccc(-c3nc(N4CC[C@@H]4C(F)(F)F)nc4c3CCC4(F)F)s2)COC1` [Example 896, (R)-3-(5-(7,7-difluoro-2-(2-(trifluoromethyl)azetidin-1-yl)-6,7-dihydro-5H-cyclopenta[d]pyrimidin-4-yl)thiophen-2-yl)oxetan-3-amine], the results for the IC50 in assay [2] and in assay [3] were 1.7 nM and 2.1 nM, respectively.

In the case of “(S)-4-(2-(2-methylazetidin-1-yl)-6,7-dihydro-5H-cyclopenta[d]pyrimidin-4-yl)pyridine-2-sulfonamide [Example 224]”, the IC50 was determined as 114 nM in assay [2] and 155 nM in assay [3].
